Measured values as given in patent publication US12655116B2, “Substituted isophthalic acid diamides” (Bayer Aktiengesellschaft, priority 2020, dated 2026).

How the values were obtained:
POLCO [1] = experiment: Post-emergence herbicidal action against POLCO; format: in vivo, Polygonum convolvulus; details: dosage 20 g/ha
How it was run: (§1)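 Post-emergence greenhouse test; one-leaf stage, 2–3 wk post-sowing, sandy loam. Foliar spray of WP/EC in water, 600–800 l/ha, +0.2% wetting agent. Visual % action at ~3 wk vs untreated (100% = plants dead).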

AMARE [2] = experiment: Pre-emergence herbicidal action against AMARE; format: in vivo, Amaranthus retroflexus
How it was run: (§2)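 Herbicidal effect was assessed 3 weeks after treatment by visual comparison with untreated controls, 100% denoting dead plants. Aqueous WP or EC preparations had been applied at 600 to 800 l/ha with 0.2% wetting agent to the soil covering freshly sown seeds.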

AVEFA [3] = experiment: Pre-emergence herbicidal action against AVEFA; format: in vivo, Avena fatua; details: pre-emergence
How it was run: as §2

AVEFA [4] = experiment: Post-emergence herbicidal action against AVEFA; format: in vivo, Avena fatua; details: visual assessment about 3 weeks after treatment, 100% = plants have died, 0% = like control plants
How it was run: as §1

SETVI [5] = experiment: Pre-emergence herbicidal action against SETVI; format: in vivo, Setaria viridis
How it was run: as §2

VIOTR [6] = experiment: Pre-emergence herbicidal action against VIOTR; format: in vivo, Viola tricolor
How it was run: as §2

ABUTH [7] = experiment: Post-emergence herbicidal action against ABUTH; format: in vivo, Abutilon theophrasti; details: visual assessment about 3 weeks after treatment vs untreated controls
How it was run: as §1

MATIN [8] = experiment: Post-emergence herbicidal action against MATIN; format: in vivo, Matricaria inodora; details: dosage 20 g/ha
How it was run: as §1

ALOMY [9] = experiment: Pre-emergence herbicidal action against ALOMY; format: in vivo, Alopecurus myosuroides; details: 80 g/ha, pre-emergence, scored visually after 3 weeks vs untreated controls (100% = plants have died, 0% = like control plants)
How it was run: as §2

PHBPU [10] = experiment: Post-emergence herbicidal action against PHBPU; format: in vivo, Pharbitis purpurea; details: dosage 20 g/ha
How it was run: as §1

MATIN [11] = experiment: Pre-emergence herbicidal action against MATIN; format: in vivo, Matricaria inodora
How it was run: as §2

DIGSA [12] = experiment: Pre-emergence herbicidal action against DIGSA; format: in vivo, Digitaria sanguinalis
How it was run: as §2

SETVI [13] = experiment: Post-emergence herbicidal action against SETVI; format: in vivo, Setaria viridis
How it was run: as §1

ECHCG [14] = experiment: Post-emergence herbicidal action against ECHCG; format: in vivo, Echinochloa crus-galli
How it was run: as §1

ABUTH [15] = experiment: Pre-emergence herbicidal action against ABUTH; format: in vivo, Abutilon theophrasti
How it was run: as §2

ECHCG [16] = experiment: Pre-emergence herbicidal action against ECHCG; format: in vivo, Echinochloa crus-galli; details: 80 g/ha
How it was run: as §2

VERPE [17] = experiment: Post-emergence herbicidal action against VERPE; format: in vivo, Veronica persica; details: Veronica persica, 504 h, 20 g/ha
How it was run: as §1

POLCO [18] = experiment: Pre-emergence herbicidal action against POLCO; format: in vivo, Polygonum convolvulus; details: Fallopia convolvulus, 504 h, dosage 80 g/ha
How it was run: as §2

ALOMY [19] = experiment: Post-emergence herbicidal action against ALOMY; format: in vivo, Alopecurus myosuroides; details: Alopecurus myosuroides, 504 h, dosage 20 g/ha, visual assessment about 3 weeks after treatment vs untreated controls
How it was run: as §1

VERPE [20] = experiment: Pre-emergence herbicidal action against VERPE; format: in vivo, Veronica persica; details: Veronica persica, 504 h, dosage 80 g/ha
How it was run: as §2

VIOTR [21] = experiment: Post-emergence herbicidal action against VIOTR; format: in vivo, Viola tricolor; details: Viola tricolor, 504 h
How it was run: as §1

DIGSA [22] = experiment: Post-emergence herbicidal action against DIGSA; format: in vivo, Digitaria sanguinalis; details: Digitaria sanguinalis, 504 h
How it was run: as §1

PHBPU [23] = experiment: Pre-emergence herbicidal action against PHBPU; format: in vivo, Pharbitis purpurea; details: Ipomoea purpurea, 504 h, dosage 80 g/ha
How it was run: as §2

AMARE [24] = experiment: Post-emergence herbicidal action against AMARE; format: in vivo, Amaranthus retroflexus; details: Amaranthus retroflexus, 504 h, 20 g/ha, visual assessment about 3 weeks after treatment, 100% = plants have died, 0% = like control plants
How it was run: as §1

[25] = 80 g/ha, scored visually after 3 weeks vs untreated controls (100% = plants have died, 0% = like control plants)
[26] = Setaria viridis, 504 h, dosage 20 g/ha

With `Cc1c(C(=O)Nc2nnnn2C)ccc(C(F)(F)F)c1C(=O)NCC1CC1` [Example 1-28] the “Post-emergence action against POLCO in %” value (POLCO [1]) was 80%, the “Pre-emergence action against AMARE in %” value (AMARE [2]; 20 g/ha, scored visually after 3 weeks vs untreated controls, 100% = plants have died, 0% = like control plants) was 100% and the “Pre-emergence action against AMARE in %” value (AMARE [2]; [25]) was 100%. For the same compound, the “Pre-emergence action against AVEFA in %” value (AVEFA [3]; 80 g/ha) was 100%, the “Post-emergence action at 5 g/ha against AVEFA in %” value (AVEFA [4]; 5 g/ha) was 80% and the “Post-emergence action at 20 g/ha against AVEFA in %” value (AVEFA [4]; 20 g/ha) was 80%. The “Pre-emergence action against SETVI in %” value (SETVI [5]; dosage 80 g/ha) was 100%, the “Pre-emergence action against VIOTR in %” value (VIOTR [6]; dosage 20 g/ha) was 100% and the “Pre-emergence action against VIOTR in %” value (VIOTR [6]; dosage 80 g/ha) was 100%. The “Post-emergence action against ABUTH in %” value (ABUTH [7]; dosage 5 g/ha) was 80%, the “Post-emergence action against ABUTH in %” value (ABUTH [7]; dosage 20 g/ha) was 80% and the “Post-emergence action against MATIN in %” value (MATIN [8]) was 80%. The “Pre-emergence action against ALOMY (herbicidal activity)” value (ALOMY [9]) was 90%, the “Post-emergence action against PHBPU in %” value (PHBPU [10]) was 90% and the “Pre-emergence action against MATIN in %” value (MATIN [11]; dosage 20 g/ha) was 100%. For the same compound, the “Pre-emergence action against MATIN in %” value (MATIN [11]; dosage 80 g/ha) was 100%, the “Pre-emergence action against DIGSA in %” value (DIGSA [12]; dosage 20 g/ha) was 100% and the “Pre-emergence action against DIGSA in %” value (DIGSA [12]; dosage 80 g/ha) was 100%. The “Post-emergence action against SETVI in %” value (SETVI [13]; dosage 5 g/ha) was 80%, the “Post-emergence action against SETVI in %” value (SETVI [13]; dosage 20 g/ha) was 80% and the “Post-emergence action against ECHCG in %” value (ECHCG [14]; dosage 5 g/ha) was 80%. For the same compound, the “Post-emergence action against ECHCG in %” value (ECHCG [14]; dosage 20 g/ha) was 90%, the “Pre-emergence action against ABUTH (herbicidal activity)” value (ABUTH [15]; [25]) was 100% and the “Pre-emergence action against ABUTH (herbicidal activity in percent)” value (ABUTH [15]; dosage 20 g/ha, scored visually after 3 weeks vs untreated controls, 100% = plants have died, 0% = like control plants) was 90%. The “Pre-emergence action against ECHCG in %” value (ECHCG [16]) was 100%.
`CNC(=O)c1c(C(F)(F)F)ccc(C(=O)Nc2nnnn2C)c1Br` [Example 1-207] was tested, and the pest or weed control at 20 g/ha (VERPE [17]) was 90%, the pest or weed control at 80 g/ha (POLCO [18]) was 90% and the pest or weed control at 20 g/ha (ALOMY [19]) was 90%. The pest or weed control at 20 g/ha (POLCO [1]; Fallopia convolvulus, 504 h) was 100%, the pest or weed control at 80 g/ha (VERPE [20]) was 100% and the pest or weed control at 20 g/ha (AMARE [2]; Amaranthus retroflexus, 504 h, 20 g/ha, scored visually after 3 weeks vs untreated controls, 100% = plants have died, 0% = like control plants) was 100%. The pest or weed control at 80 g/ha (AMARE [2]; Amaranthus retroflexus, 504 h, 80 g/ha, scored visually after 3 weeks vs untreated controls, 100% = plants have died, 0% = like control plants) was 100%, the pest or weed control at 80 g/ha (AVEFA [3]; Avena fatua, 504 h, 80 g/ha) was 90% and the pest or weed control at 20 g/ha (AVEFA [3]; Avena fatua, 504 h, 20 g/ha, scored visually after 3 weeks, 100% = plants have died, 0% = like control plants) was 80%. The pest or weed control at 20 g/ha (SETVI [5]; [26]) was 100%, the pest or weed control at 80 g/ha (SETVI [5]; Setaria viridis, 504 h, dosage 80 g/ha) was 100% and the pest or weed control at 20 g/ha (VIOTR [6]; Viola tricolor, 504 h, dosage 20 g/ha) was 100%. The pest or weed control at 80 g/ha (VIOTR [6]; Viola tricolor, 504 h, dosage 80 g/ha) was 100%, the pest or weed control at 5 g/ha (ABUTH [7]; Abutilon theophrasti, 504 h, dosage 5 g/ha) was 80% and the pest or weed control at 20 g/ha (ABUTH [7]; Abutilon theophrasti, 504 h, dosage 20 g/ha) was 90%. For the same compound, the pest or weed control at 20 g/ha (MATIN [8]; Tripleurospermum inodorum, 504 h) was 90%, the pest or weed control at 80 g/ha (ALOMY [9]; Alopecurus myosuroides, 504 h) was 100% and the pest or weed control at 20 g/ha (PHBPU [10]; Ipomoea purpurea, 504 h) was 80%. For the same compound, the pest or weed control at 5 g/ha (VIOTR [21]; 5 g/ha) was 100%, the pest or weed control at 20 g/ha (VIOTR [21]; 20 g/ha) was 100% and the pest or weed control at 20 g/ha (MATIN [11]; Tripleurospermum inodorum, 504 h, dosage 20 g/ha) was 90%. For the same compound, the pest or weed control at 80 g/ha (MATIN [11]; Tripleurospermum inodorum, 504 h, dosage 80 g/ha) was 100%, the pest or weed control at 20 g/ha (DIGSA [12]; Digitaria sanguinalis, 504 h, dosage 20 g/ha) was 100% and the pest or weed control at 80 g/ha (DIGSA [12]; Digitaria sanguinalis, 504 h, dosage 80 g/ha) was 100%. For the same compound, the pest or weed control at 5 g/ha (SETVI [13]; Setaria viridis, 504 h, dosage 5 g/ha) was 100%, the pest or weed control at 20 g/ha (SETVI [13]; [26]) was 100% and the pest or weed control at 20 g/ha (ECHCG [14]; Echinochloa crus-galli, 504 h, dosage 20 g/ha) was 80%. For the same compound, the pest or weed control at 5 g/ha (DIGSA [22]; 5 g/ha) was 90%, the pest or weed control at 20 g/ha (DIGSA [22]; 20 g/ha) was 100% and the pest or weed control at 80 g/ha (ABUTH [15]; Abutilon theophrasti, 504 h, 80 g/ha, scored visually after 3 weeks vs untreated controls (100% = plants have died, 0% = like control plants)) was 100%. The pest or weed control at 20 g/ha (ABUTH [15]; Abutilon theophrasti, 504 h, dosage 20 g/ha, scored visually after 3 weeks vs untreated controls, 100% = plants have died, 0% = like control plants, read-out: Pre-emergence action against ABUTH (herbicidal activity in percent)) was 100%, the pest or weed control at 80 g/ha (PHBPU [23]) was 80% and the pest or weed control at 20 g/ha (AMARE [24]) was 100%. For the same compound, the pest or weed control at 80 g/ha (ECHCG [16]; Echinochloa crus-galli, 504 h) was 90%.
